The numbers were not newly measured in patent publication US20230134563A1, “SUBLINGUAL CANNABINOID COMPOSITIONS” (ALVIT LCS PHARMA LTD., priority 2017, published 2023), which cites them from elsewhere.

The conditions of the series: single component (oil or surfactant).

Regarding `CCCCCc1cc(O)c2c(c1)OC(C)(C)[C@@H]1CCC(C)=C[C@@H]21` [THC, tetrahydrocannabinol], the HLB is recorded as 0.754.
